The assay addresses T1, human growth hormone secretagogue receptor (hGHS-R1a) (Homo sapiens, UniProt Q92847).
T1 construct: purchased PerkinElmer BioSignal #RBHGHSM, lot#1887; host or cells: HEK-293, stably transfected (membranes)
Description: Competitive radioligand binding assay (ghrelin receptor), [125I]-ghrelin displacement on GHS-R/HEK 293 membranes. How it is done: The competitive binding assay at the human growth hormone secretagogue receptor (hGHS-R1a) was carried out analogously to assays described in the literature.
Multiscreen Harvest plates-GF/C (Millipore, #MAHFC 1H60) • 4. […] Bottom seal (Millipore, #MATAH0P00) • 7. […] Binding Buffer: 25 mM Hepes (pH 7.4), 1 mM CaCl2, 5 mM MgCl2, 2.5 mM EDTA, 0.4% BSA Assay Volumes
Competition experiments were performed in a 300 μl filtration assay format. • 1. 220 μL of membranes diluted in binding buffer • 2. 40 μL of compound diluted in binding buffer • 3. […] Compound Handling
Compounds were provided frozen on dry ice at a stock concentration of 10 mM diluted in 100% DMSO and stored at −80° C. until the day of testing. On the test day, compounds were allowed to thaw at rt O/N and then diluted in assay buffer according to the desired test concentrations.
Plates were sealed with TopSeal-A, vortexed gently and incubated at rt for 30 min. The reaction was arrested by filtering samples through Multiscreen Harvest plates (pre-soaked in 0.5% polyethyleneimine) using a Tomtec Harvester, washed 9 times with 500 μL of cold 50 mM Tris-HCl (pH 7.4, 4° C.), and then plates were air-dried in a fumehood for 30 min. A bottom seal was applied to the plates prior to the addition of 25 μL of MicroScint-0 to each well. […] Results were expressed as counts per minute (cpm).
Data were analyzed by GraphPad Prism (GraphPad Software, San Diego, Calif.) using a variable slope non-linear regression analysis.
• 1. […] Key Aspects of Method • 1. […] Results

[1] abbreviates: binding activity at the human ghrelin receptor, [125I]-ghrelin competition, GHS-R/HEK 293 membranes, read-out: Ki.
The mark [2] stands for this setting: second table titled 3C (compounds 435-449), human ghrelin receptor, read-out: Ki.
The mark [3] stands for this setting: binding activity at the human ghrelin receptor, [125I]-ghrelin displacement, read-out: Ki.
The mark [4] stands for this setting: [125I]-ghrelin competition, GHS-R/HEK 293 membranes, Table 3A, read-out: Binding Activity at the Human Ghrelin Receptor.

Where two headings read alike, the source gives them in different places.

T1 sequence (Q92847 whole entry): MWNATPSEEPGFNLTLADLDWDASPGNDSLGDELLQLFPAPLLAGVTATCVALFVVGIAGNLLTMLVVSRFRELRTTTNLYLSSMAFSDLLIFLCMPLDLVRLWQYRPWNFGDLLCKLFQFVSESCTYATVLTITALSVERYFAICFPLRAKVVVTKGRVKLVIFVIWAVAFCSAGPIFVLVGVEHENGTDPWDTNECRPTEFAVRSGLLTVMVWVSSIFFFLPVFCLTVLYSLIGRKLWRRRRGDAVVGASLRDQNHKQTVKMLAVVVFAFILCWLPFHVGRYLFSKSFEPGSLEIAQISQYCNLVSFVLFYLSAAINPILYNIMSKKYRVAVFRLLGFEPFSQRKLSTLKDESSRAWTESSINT

For `CCC(C)C1NCCOc2ccccc2CCCNC(=O)C(Cc2ccccc2)NC(=O)C(CC)N(C)C1=O` (stereo not drawn) [compound 41], the Ki under setting [1] lay in the range of 10 to 100 nM.
Still for that read-out and setting: under `O=C(O)CC[C@@H]1NCCOc2ccccc2CCCNC(=O)[C@H](Cc2ccccc2)NC(=O)C2(CCCC2)NC1=O` [compound 104] stands above 10000 nM; under `CC[C@H](C)[C@@H]1NCCOc2ccccc2CCCNC(=O)[C@@H](Cc2ccccc2)NC(=O)[C@H](CC(C)C)N(C)C1=O` [compound 148], above 1000 nM.
`O=C1NC/C=C/c2ccccc2OCCNC2(CCCC2)C(=O)NC2(CCCC2)C(=O)N[C@H]1Cc1cccc(Cl)c1` [compound 437]: the Ki under setting [2] lay in the range of 0.1 to 10 nM.
The same measure, in the same setting: under `CC(C)CC1NCCOc2ccccc2/C=C/CNC(=O)C(Cc2c[nH]cn2)NC(=O)C2(CCCC2)NC1=O` (single isomer, unassigned) [444a] stands above 10000 nM.
Take `CC(C)CC1NCCOc2ccccc2CCCNC(=O)C(CCCCN)NC(=O)C2(CCCC2)NC1=O` (stereo not drawn) [compound 91]: under setting [1], the Ki is above 10000 nM.
Still for that read-out and setting: under `CCCC1NCc2cccc(c2)CCNC(=O)C(Cc2ccccc2)NC(=O)CN(C)C1=O` (stereo not drawn) [compound 85] stands above 10000 nM.
On to `CCC(C)C1NCCOc2ccccc2C=CCNC(=O)C(Cc2cccc(F)c2)NC(=O)C2(CCCC2)NC1=O` (stereo not drawn) [compound 325], for which the Ki under setting [3] was 10 to 100 nM.
`O=C1NC2(CCCC2)C(=O)N[C@@H](Cc2ccccc2)C(=O)NCC=Cc2ccccc2OCCN[C@H]1Cc1ccc(-c2ccccc2)cc1` (stereo in doubt) [compound 128]: the Ki under setting [1] is above 10000 nM.
In the case of `C[C@@H]1C(=O)N[C@H](Cc2ccc(F)c(F)c2)C(=O)NCCCc2ccccc2OCCN[C@@H](C2CC2)C(=O)N1C` [compound 316], under setting [3], the Ki lay within 10 to 100 nM.
As for `O=C1NC2(CCCC2)C(=O)N[C@@H](Cc2ccccc2)C(=O)NCC=Cc2ccccc2OCCN[C@H]1CCc1ccccc1` (stereo in doubt) [compound 126], the Ki under setting [1] is 100 to 1000 nM.
For `C[C@@H]1C(=O)N[C@H](Cc2ccc(F)cc2)C(=O)NCCCc2ccccc2OCCN[C@@H](CCN)C(=O)N1C` [compound 338], the Ki under setting [3] was in the range of 100 to 1000 nM.
As to `CCC1NCCOc2ccccc2C=CCNC(=O)C(Cc2ccccc2)NC(=O)C2(CCCC2)NC1=O` (single isomer, unassigned) [136a], the Ki under setting [1] was 10 to 100 nM.
The same measure, in the same setting: under `CCC(C)C1NCCOc2ccccc2CCCNC(=O)C(Cc2ccccc2)NC(=O)C(C(C)C)N(C)C1=O` (stereo not drawn) [compound 144] stands 100 to 1000 nM; under `NCCCC[C@@H]1NCCOc2ccccc2CCCNC(=O)[C@H](Cc2ccccc2)NC(=O)C2(CCCC2)NC1=O` [compound 103], above 10000 nM; under `O=C1NC2(CCCC2)C(=O)NC(Cc2ccccc2)C(=O)NCC=Cc2ccccc2OCCNC1Cc1cccc2ccccc12` (stereo not drawn) [compound 130], 1000 to 10000 nM.
Same read-out and setting: under `CCC(C)C1NCCOc2ccccc2CCCNC(=O)C(Cc2ccccc2)NC(=O)C(C(C)C)N(C)C1=O` (single isomer, unassigned) [145b] stands above 1000 nM.
In the case of `CC(C)C1NCCOc2ccccc2CCCNC(=O)C(Cc2ccccc2)NC(=O)C2(CCNCC2)NC1=O` (stereo not drawn) [compound 207], the Ki under setting [4] was above 10000 nM.
Turning to `CCC(C)C1NC(=O)C2(CCCC2)NC(=O)C(CC(C)C)NCCOc2ccccc2C=CCNC1=O` (stereo not drawn) [compound 166], the Ki under setting [4] is above 10000 nM.
On to `CCC[C@@H]1NCCOc2ccccc2CCCNC(=O)[C@@H](Cc2ccccc2)NC(=O)[C@H](C)NC1=O` [compound 59], for which the Ki under setting [1] was in the range of 1000 to 10000 nM.
Still for that read-out and setting: under `CC(C)C[C@H]1NCCOc2ccccc2CCCNC(=O)[C@@H](Cc2ccccc2)NC(=O)C2(CCCC2)NC1=O` [compound 98] stands above 10000 nM.
For the molecule `C[C@@H]1C(=O)N[C@H](Cc2ccccc2)C(=O)NCCCc2ccccc2OCCN2CCC[C@H]2C(=O)N1C`, the Ki (Table 3E, human ghrelin receptor, read-out: Ki) is 100 to 1000 nM.
As for `CC(C)C[C@@H]1NCCOc2ccccc2C=CCNC(=O)[C@H](CCC(=O)O)NC(=O)C2(CCCC2)NC1=O` (stereo in doubt) [compound 45], the Ki under setting [1] is above 10000 nM.
For the molecule `CC(C)C1NCCOc2ccccc2C=CCNC(=O)C(Cc2ccccc2)NC(=O)C2(CCSCC2)NC1=O` (stereo in doubt) [compound 143], the Ki under setting [1] lay within 100 to 1000 nM.

Source of the values: patent US20060025566A1, “Macrocyclic modulators of the ghrelin receptor” (Tranzyme Pharma Inc., priority 2003, published 2006).
